Consider two compounds from EPA's ToxValDB 9.5 (doi:10.2903/j.efsa.2009.190r).

For one data set, the system named is Rattus norvegicus. To be noted: for NOAEL: inhalation.
The test system of a further data set is Tagia sp. To be noted: acute; duration: 14 days; mortality.
[1] abbreviates: chronic, duration: 2 years, no effects.
The mark [2] stands for this setting: reproduction developmental, mortality.
Setting [3] is: subchronic, duration: 90 days, no effects.

SMILES strings stand for the structures.

As a reminder, the NOAEL is the highest dose or exposure tested at which no adverse effect was seen. For `[Mg+2].[Mg+2].[Mg+2].[P-3].[P-3]` [Magnesium phosphide], in the data set on Rattus norvegicus (acute, oral, mortality), the LD50 is 11.2 mg/kg-day. Also, the NOAEL with Rattus norvegicus (setting [1]) was 1.1 mg/kg-day; in the data set with Rattus norvegicus (setting [2]), 1.9 mg/kg-day; with Rattus norvegicus (setting [3]) it was 1.1 mg/kg-day. Further, in the data set with Tagia sp., the LC50 is 664 mg/kg.
On to `P` [Phosphine], for which the NOAEL in the data set on Rattus norvegicus (setting [1]) was found to be 1.1 mg/kg-day; in the data set with Rattus norvegicus (developmental, duration: 10 days, development) it was 1.9 mg/kg-day; in the data set with Rattus norvegicus (setting [2]), 1.9 mg/kg-day; with Rattus norvegicus (subchronic, duration: 90 days, mortality) it was 1.1 mg/kg-day; in the data set on Rattus norvegicus (setting [3]), 1.1 mg/kg-day.
